≈ marks a conversion by molar mass, not a printed value.
Legend:
Dihydrofolate reductase = molecular target: T1, Dihydrofolate reductase (Homo sapiens, UniProt P00374); experiment: Inhibition of DHFR
T1 sequence (P00374 whole entry): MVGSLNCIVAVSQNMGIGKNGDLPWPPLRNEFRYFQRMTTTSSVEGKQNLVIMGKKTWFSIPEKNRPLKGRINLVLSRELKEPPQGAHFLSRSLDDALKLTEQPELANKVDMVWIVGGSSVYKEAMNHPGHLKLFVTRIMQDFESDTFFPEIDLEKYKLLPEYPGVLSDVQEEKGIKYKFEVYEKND

[1] = molecular target: DNA topoisomerase 2-alpha (Homo sapiens, UniProt P11388); experiment: Inhibition of topoisomerase 2
Sequence of DNA topoisomerase 2-alpha (P11388 whole entry): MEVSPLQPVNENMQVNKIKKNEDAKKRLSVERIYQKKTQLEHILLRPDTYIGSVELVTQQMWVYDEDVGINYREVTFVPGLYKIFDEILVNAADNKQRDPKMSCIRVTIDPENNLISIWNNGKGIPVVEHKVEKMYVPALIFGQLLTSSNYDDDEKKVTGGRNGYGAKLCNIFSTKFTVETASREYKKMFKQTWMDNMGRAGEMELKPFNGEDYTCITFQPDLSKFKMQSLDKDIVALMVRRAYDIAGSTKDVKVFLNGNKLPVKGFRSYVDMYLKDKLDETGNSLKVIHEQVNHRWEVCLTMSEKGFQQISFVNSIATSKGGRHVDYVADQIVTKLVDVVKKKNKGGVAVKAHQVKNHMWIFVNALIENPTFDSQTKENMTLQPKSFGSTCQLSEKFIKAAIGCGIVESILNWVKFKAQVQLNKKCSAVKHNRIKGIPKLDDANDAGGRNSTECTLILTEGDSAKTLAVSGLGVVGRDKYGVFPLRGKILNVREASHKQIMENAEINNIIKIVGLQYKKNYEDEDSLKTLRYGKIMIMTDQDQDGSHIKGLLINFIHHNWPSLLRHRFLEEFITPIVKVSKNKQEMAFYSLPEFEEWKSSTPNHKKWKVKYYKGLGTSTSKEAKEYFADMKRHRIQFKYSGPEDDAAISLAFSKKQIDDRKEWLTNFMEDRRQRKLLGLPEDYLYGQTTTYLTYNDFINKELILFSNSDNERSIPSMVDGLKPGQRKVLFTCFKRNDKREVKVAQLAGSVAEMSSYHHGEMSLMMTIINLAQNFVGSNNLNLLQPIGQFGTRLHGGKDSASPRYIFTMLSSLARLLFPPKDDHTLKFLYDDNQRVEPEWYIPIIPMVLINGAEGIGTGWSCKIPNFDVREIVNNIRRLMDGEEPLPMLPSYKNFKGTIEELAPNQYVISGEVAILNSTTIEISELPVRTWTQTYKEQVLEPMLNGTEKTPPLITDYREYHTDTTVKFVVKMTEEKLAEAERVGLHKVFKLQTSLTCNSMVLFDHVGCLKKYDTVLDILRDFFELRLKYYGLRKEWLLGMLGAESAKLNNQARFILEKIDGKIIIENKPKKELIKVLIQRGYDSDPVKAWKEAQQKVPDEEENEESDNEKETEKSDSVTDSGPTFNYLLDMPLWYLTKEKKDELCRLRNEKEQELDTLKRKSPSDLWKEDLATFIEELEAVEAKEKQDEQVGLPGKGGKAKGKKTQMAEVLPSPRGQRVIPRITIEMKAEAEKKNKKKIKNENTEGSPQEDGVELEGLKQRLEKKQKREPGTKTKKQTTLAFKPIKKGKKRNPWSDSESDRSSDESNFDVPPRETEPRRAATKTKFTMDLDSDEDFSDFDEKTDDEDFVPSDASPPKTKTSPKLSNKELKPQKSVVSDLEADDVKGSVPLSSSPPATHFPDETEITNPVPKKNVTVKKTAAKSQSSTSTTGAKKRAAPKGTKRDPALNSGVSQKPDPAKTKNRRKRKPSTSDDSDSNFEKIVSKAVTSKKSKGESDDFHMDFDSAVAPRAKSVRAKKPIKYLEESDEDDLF

P388 = experiment: Cytotoxicity against mouse P388 cells; type: functional, cell-based
HT-29 = experiment: Cytotoxicity against human HT-29 cells; type: functional, cell-based
[2] = Cytotoxicity against african green monkey CV1 cells; type: cell-based; conditions: Chlorocebus aethiops, CV-1
A549 = experiment: Cytotoxicity against human A549 cells; type: functional, cell-based

IC50 (Dihydrofolate reductase): 2460 nM
IC50 [1]: 1970 nM
Compound: O=C1N/C=C/c2cc(Br)c(c(Br)c2)Oc2cc(cc(Br)c2O)CCNC(=O)/C(=N/O)Cc2ccc(c(Br)c2)Oc2cc(cc(Br)c2O)C/C1=N\O [BASTADIN 14]
IC50 (P388): 2 µg/mL (≈ 1.97 µM)
IC50 (HT-29): 2 µg/mL (≈ 1.97 µM)
IC50 [2]: 2.5 µg/mL (≈ 2.46 µM)
IC50 (A549): 2 µg/mL (≈ 1.97 µM)

Reference: ChEMBL document CHEMBL1147337, “A new bastadin from the sponge Psammaplysilla purpurea” (J Nat Prod, 1993)
